Reference: paper PMC6210068 (ACS Omega, 2018)
Like-named read-outs stand apart in the source and are kept apart here.

Assays:
hDAT = hDAT (Homo sapiens, UniProt Q01959); test: Radioligand binding at DAT; conditions: 10 μM; [3H]WIN35428; negative = enhanced radioligand binding
KOR [1] = target: T1, KOR (Homo sapiens, UniProt P41145); test: biochemical; type: binding; conditions: for Ki: KOR, [3H]U69593, mean ± SEM, N = 2–4
hA3AR = target: T2, hA3AR (Homo sapiens, UniProt P0DMS8); test: A3AR binding
T2 sequence (P0DMS8 1-318): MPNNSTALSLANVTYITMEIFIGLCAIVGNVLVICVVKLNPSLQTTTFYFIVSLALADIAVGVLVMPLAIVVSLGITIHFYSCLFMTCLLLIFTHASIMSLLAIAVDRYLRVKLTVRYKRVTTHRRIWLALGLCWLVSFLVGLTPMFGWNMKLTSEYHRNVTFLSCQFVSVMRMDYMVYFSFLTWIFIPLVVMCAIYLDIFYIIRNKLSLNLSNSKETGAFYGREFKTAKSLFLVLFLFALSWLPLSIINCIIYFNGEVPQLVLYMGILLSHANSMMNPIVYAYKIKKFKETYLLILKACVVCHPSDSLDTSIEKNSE

rat kidney TSPO = rat kidney TSPO (Rattus norvegicus, UniProt P16257); test: Radioligand binding at TSPO; conditions: for Ki: TSPO, rat TSPO, [3H]PK11195
DOR = DOR (Homo sapiens, UniProt P41143); test: Radioligand binding at DOR
MOR = MOR (Homo sapiens, UniProt P35372); test: biochemical; type: binding
hA1AR = target: T3, hA1AR (Homo sapiens, UniProt P30542); test: hA1AR binding; conditions: for inhibition at 10 µM: read-out: binding inhibition at hA1AR (% at 10 μM)
T3 sequence (P30542 1-326): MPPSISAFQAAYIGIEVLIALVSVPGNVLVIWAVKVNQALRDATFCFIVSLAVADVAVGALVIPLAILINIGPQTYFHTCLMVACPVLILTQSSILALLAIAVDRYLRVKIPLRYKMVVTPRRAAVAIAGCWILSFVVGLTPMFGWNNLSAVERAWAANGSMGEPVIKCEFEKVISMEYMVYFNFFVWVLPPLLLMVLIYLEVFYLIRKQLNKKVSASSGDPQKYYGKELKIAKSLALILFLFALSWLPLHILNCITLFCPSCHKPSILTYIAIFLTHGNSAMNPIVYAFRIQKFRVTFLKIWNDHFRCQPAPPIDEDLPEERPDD

rat σ2 receptor = target: T4, rat σ2 receptor (Rattus norvegicus, UniProt Q5U3Y7); test: PDSP binding, σ2 receptor
T4 sequence (Q5U3Y7 1-176): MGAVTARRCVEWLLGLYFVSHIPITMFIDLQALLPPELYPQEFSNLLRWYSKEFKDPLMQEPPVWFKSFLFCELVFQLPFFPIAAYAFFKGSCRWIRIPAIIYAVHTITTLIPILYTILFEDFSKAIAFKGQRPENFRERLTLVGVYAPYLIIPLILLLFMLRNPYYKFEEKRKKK

KOR [2] = target: T1, KOR; type: cell-based

T1 sequence (P41145 whole entry): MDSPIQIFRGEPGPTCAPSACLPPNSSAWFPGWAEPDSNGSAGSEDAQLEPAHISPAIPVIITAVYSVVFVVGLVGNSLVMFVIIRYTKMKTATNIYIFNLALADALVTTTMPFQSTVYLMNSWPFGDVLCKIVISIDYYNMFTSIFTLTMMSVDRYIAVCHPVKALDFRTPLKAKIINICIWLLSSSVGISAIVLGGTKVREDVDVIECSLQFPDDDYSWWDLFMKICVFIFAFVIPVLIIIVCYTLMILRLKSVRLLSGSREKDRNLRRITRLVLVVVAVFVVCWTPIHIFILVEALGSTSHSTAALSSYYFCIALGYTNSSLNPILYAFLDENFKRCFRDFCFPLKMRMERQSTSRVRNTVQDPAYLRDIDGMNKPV
Sequence of hDAT (Q01959 whole entry): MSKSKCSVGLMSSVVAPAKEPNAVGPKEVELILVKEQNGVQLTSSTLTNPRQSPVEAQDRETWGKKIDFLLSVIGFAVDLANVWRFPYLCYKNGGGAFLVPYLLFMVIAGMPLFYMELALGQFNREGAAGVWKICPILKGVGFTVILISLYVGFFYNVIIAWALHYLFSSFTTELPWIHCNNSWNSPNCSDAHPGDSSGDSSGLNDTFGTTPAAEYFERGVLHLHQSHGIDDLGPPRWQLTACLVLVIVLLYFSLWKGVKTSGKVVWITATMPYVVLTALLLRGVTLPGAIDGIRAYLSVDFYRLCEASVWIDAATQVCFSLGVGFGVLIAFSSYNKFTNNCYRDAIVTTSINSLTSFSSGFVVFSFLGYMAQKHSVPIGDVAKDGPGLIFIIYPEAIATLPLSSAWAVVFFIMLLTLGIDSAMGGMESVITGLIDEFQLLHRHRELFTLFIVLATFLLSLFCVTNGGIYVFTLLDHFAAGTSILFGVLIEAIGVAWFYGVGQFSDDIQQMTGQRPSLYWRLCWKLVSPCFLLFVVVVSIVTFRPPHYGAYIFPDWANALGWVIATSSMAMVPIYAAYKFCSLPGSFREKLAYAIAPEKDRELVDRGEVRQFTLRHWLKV
Sequence of rat kidney TSPO (P16257 whole entry): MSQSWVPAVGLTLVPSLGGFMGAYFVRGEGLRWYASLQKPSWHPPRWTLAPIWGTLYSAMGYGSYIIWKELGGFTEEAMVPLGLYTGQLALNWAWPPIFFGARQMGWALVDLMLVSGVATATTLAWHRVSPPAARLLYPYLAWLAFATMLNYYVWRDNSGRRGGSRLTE
Sequence of MOR (P35372 whole entry): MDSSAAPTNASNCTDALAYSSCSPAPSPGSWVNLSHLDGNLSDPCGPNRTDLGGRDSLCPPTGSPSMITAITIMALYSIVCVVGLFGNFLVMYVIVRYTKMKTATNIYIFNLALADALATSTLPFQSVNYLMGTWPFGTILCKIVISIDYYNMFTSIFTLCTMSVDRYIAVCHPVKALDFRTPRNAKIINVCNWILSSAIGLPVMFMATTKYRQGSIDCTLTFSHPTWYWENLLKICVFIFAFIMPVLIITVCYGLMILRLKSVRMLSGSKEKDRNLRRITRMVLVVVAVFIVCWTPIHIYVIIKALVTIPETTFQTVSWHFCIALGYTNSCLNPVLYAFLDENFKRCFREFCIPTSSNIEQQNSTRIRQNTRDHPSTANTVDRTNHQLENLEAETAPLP
Sequence of DOR (P41143 whole entry): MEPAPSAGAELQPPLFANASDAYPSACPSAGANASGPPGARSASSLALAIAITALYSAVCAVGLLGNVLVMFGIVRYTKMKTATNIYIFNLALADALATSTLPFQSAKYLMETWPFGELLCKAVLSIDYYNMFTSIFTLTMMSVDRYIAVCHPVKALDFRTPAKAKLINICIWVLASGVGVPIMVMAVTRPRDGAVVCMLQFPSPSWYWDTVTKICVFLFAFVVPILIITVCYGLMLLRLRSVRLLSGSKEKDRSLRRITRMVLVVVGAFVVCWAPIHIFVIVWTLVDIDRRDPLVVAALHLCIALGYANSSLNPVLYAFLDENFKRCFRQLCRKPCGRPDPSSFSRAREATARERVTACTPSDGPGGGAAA

| Compound | DAT, inhibition, % of control at 10 μM (hDAT) | Ki (KOR [1]) [nM] | Ki (hA3AR) [nM] | DOR, inhibition of radioligand binding at 10 μM (class) (DOR; Table 2) | MOR, inhibition of radioligand binding at 10 μM (class) (MOR; Table 2) | Ki (rat kidney TSPO) [nM] | other results |
| --- | --- | --- | --- | --- | --- | --- | --- |
| CNc1nc(C#Cc2ccc(Cl)s2)nc2c1ncn2[C@H]1[C@H](O)[C@H](O)[C@]2(C(=O)OCCc3ccccc3)C[C@H]12 [compound 36] | <20% | 3670 ± 1640 | 114 ± 64 | ^d (<30% inhibition of radioligand binding at 10 μM) | ^d (<30% inhibition of radioligand binding at 10 μM) |  | TSPO, inhibition of radioligand binding at 10 μM (class) (rat kidney TSPO; Table 2): ^d (<30% inhibition of radioligand binding at 10 μM) |
| CNc1nc(C#Cc2ccc(Cl)s2)nc2c1ncn2[C@H]1[C@H](O)[C@H](O)[C@]2(C(=O)OC(C)C)C[C@H]12 [compound 31] | <20% | ~400 |  | ^d (<30% inhibition of radioligand binding at 10 μM) | ^d (<30% inhibition of radioligand binding at 10 μM) |  | KOR, inhibition of radioligand binding at 10 μM (class) (KOR [1]; Table 2): ^d (<30% inhibition of radioligand binding at 10 μM); TSPO, inhibition of radioligand binding at 10 μM (class) (rat kidney TSPO; Table 2): ^d (<30% inhibition of radioligand binding at 10 μM) |
| CNC(=O)[C@@]12C[C@@H]1[C@@H](n1ccc3c(NC)ncnc31)[C@H](O)[C@@H]2O [compound 17] | –14% |  | 498 ± 46 |  |  |  | TSPO, inhibition of radioligand binding at 10 μM (class) (rat kidney TSPO; Table 1): ^e (30–50% inhibition of radioligand binding at 10 μM); DOR, inhibition of radioligand binding at 10 μM (class) (DOR; Table 1): ^e (30–50% inhibition of radioligand binding at 10 μM) |
| CNC(=O)[C@@]12C[C@@H]1[C@@H](n1cnc3c(NCc4cccc(Cl)c4)nc(C#Cc4ccc(F)cc4)nc31)[C@H](O)[C@@H]2O [compound 7] | 21% |  |  |  |  | ~300 | inhibition at 10 µM (hA1AR): 22% |
| O[C@@H]1[C@H](O)[C@@H]2C[C@@H]2[C@H]1n1ccc2c(NC(C3CC3)C3CC3)nc(C#Cc3ccccc3)nc21 [compound 56, (1R,2R,3S,4R,5S)-4-(4-((Dicyclopropylmethyl)amino)-2-(phenylethynyl)-7H-pyrrolo[2,3-d]pyrimidin-7-yl)bicyclo[3.1.0]hexane-2,3-diol] |  |  | 178 ± 32 |  |  | 4210 ± 1840 | KOR, inhibition of radioligand binding at 10 μM (class) (KOR [1]; Table 5): ^d (30–50% inhibition of radioligand binding at 10 μM); Ki (hA1AR): 650 nM; Ki (rat σ2 receptor): 670 nM; Ki (DOR): 2550 ± 660 nM; Ki (MOR): 1440 ± 750 nM |
| O[C@@H]1[C@H](O)[C@@H]2C[C@@H]2[C@H]1n1cnc2c(NCCc3ccccc3)nc(C#Cc3ccccc3Cl)nc21 [compound 52] | 7% |  |  |  |  | 877 ± 368 | Ki (rat σ2 receptor): 1820 nM; DOR, inhibition of radioligand binding at 10 μM (class) (DOR; Table 4): ^f (30–50% inhibition of radioligand binding at 10 μM) |
| CNc1nc(C#Cc2ccc(Cl)s2)nc2c1ncn2[C@H]1[C@H](O)[C@H](O)[C@]2(C(=O)OCCC3CCCCC3)C[C@H]12 [compound 34] | <20% | > 10000 | 334 ± 132 | ^c (30–50% inhibition of radioligand binding at 10 μM) | ^d (<30% inhibition of radioligand binding at 10 μM) |  | TSPO, inhibition of radioligand binding at 10 μM (class) (rat kidney TSPO; Table 2): ^c (30–50% inhibition of radioligand binding at 10 μM) |
| O[C@@H]1[C@H](O)[C@@H]2C[C@@H]2[C@H]1n1ccc2c(NC(C3CC3)C3CC3)nc(I)nc21 [compound 58, (1R,2R,3S,4R,5S)-4-(4-((Dicyclopropylmethyl)amino)-2-iodo-7H-pyrrolo[2,3-d]pyrimidin-7-yl)bicyclo[3.1.0]hexane-2,3-diol] |  |  | 5310 ± 1310 |  |  |  | KOR, inhibition of radioligand binding at 10 μM (class) (KOR [1]; Table 5): ^e (<30% inhibition of radioligand binding at 10 μM); TSPO, inhibition of radioligand binding at 10 μM (class) (rat kidney TSPO; Table 5): ^e (<30% inhibition of radioligand binding at 10 μM); DOR, inhibition of radioligand binding at 10 μM (class) (DOR; Table 5): ^e (<30% inhibition of radioligand binding at 10 μM); MOR, inhibition of radioligand binding at 10 μM (class) (MOR; Table 5): ^e (<30% inhibition of radioligand binding at 10 μM) |
| CCOC(=O)[C@@]12C[C@@H]1[C@@H](n1ccc3c(NC)nc(I)nc31)[C@H](O)[C@@H]2O [compound 39, Ethyl(1S,2R,3S,4R,5S)-2,3-dihydroxy-4-(2-iodo-4-(methylamino)-7H-pyrrolo[2,3-d]pyrimidin-7-yl)bicyclo[3.1.0]hexane-1-carboxylate] | <10% | 104 ± 35 | 390 ± 139 |  | ^c (30–50% inhibition of radioligand binding at 10 μM) |  | TSPO, inhibition of radioligand binding at 10 μM (class) (rat kidney TSPO; Table 2): ^d (<30% inhibition of radioligand binding at 10 μM); βarrestin2 recruitment, Imax (% 120) (KOR [2]; antagonism of 1 μM U69593 98): 77 ± 3 % 120; Ki (DOR): 1590 ± 280 nM |
| CCCNc1nc(C#Cc2ccc(Cl)s2)nc2c1ncn2[C@H]1[C@H](O)[C@H](O)[C@]2(C(=O)NC)C[C@H]12 [compound 18] | –159% |  |  |  |  | 1310 ± 210 | inhibition at 10 µM (hA1AR): 22%; DOR, inhibition of radioligand binding at 10 μM (class) (DOR; Table 1): ^e (30–50% inhibition of radioligand binding at 10 μM) |
| Oc1ccc2c3c1O[C@H]1c4[nH]c5c(c4C[C@@]4(O)[C@@H](C2)N(CC2CC2)CC[C@]314)C[C@@]1(O)[C@H]2Cc3ccc(O)c4c3[C@@]1(CCN2CC1CC1)[C@H]5O4 [compound 120, Norbinaltorphimine, reference compound] |  |  |  |  |  |  | βarrestin2 recruitment, Imax (% 120) (KOR [2]): 100 % 120 |
| CNc1nc(C#Cc2ccc(Cl)s2)nc2c1ncn2[C@H]1[C@H](O)[C@H](O)[C@]2(C(=O)OCCCc3ccccc3)C[C@H]12 [compound 37] | <20% | 8920 ± 1080 | 132 ± 68 | ^d (<30% inhibition of radioligand binding at 10 μM) | ^d (<30% inhibition of radioligand binding at 10 μM) | 1090 ± 290 |  |
| CNc1nc(C#Cc2ccc(Cl)s2)nc2c1ncn2[C@H]1[C@H](O)[C@H](O)[C@]2(C(=O)O)C[C@H]12 [compound 38] | –50% |  |  | ^d (<30% inhibition of radioligand binding at 10 μM) | ^d (<30% inhibition of radioligand binding at 10 μM) |  | KOR, inhibition of radioligand binding at 10 μM (class) (KOR [1]; Table 2): ^d (<30% inhibition of radioligand binding at 10 μM); TSPO, inhibition of radioligand binding at 10 μM (class) (rat kidney TSPO; Table 2): ^d (<30% inhibition of radioligand binding at 10 μM) |
| CCOC(=O)[C@@]12C[C@@H]1[C@@H](n1ccc3c(NCCc4ccccc4)nc(C#Cc4ccccc4)nc31)[C@@H]1OC(C)(C)O[C@@H]12 [compound 82, Ethyl(3aR,3bS,4aS,5R,5aS)-2,2-dimethyl-5-(4-(phenethylamino)-2-(phenylethynyl)-7H-pyrrolo[2,3-d]pyrimidin-7-yl)tetrahydrocyclopropa[3,4]cyclopenta[1,2-d][1,3]dioxole-3b(3aH)-carboxylate] | –24% | 217 ± 100 | 905 ± 144 |  |  | > 10000 | Ki (DOR): 881 ± 158 nM; Ki (MOR): > 10000 nM |
| O[C@@H]1[C@H](O)[C@@H]2C[C@@H]2[C@H]1n1cnc2c(NCCc3ccccc3)nc(C#Cc3ccccc3)nc21 [compound 51] | 24% |  |  |  |  |  | TSPO, inhibition of radioligand binding at 10 μM (class) (rat kidney TSPO; Table 4): ^g (<30% inhibition of radioligand binding at 10 μM); Ki (rat σ2 receptor): 1480 nM; DOR, inhibition of radioligand binding at 10 μM (class) (DOR; Table 4): ^g (<30% inhibition of radioligand binding at 10 μM) |
| CCCCOC(=O)[C@@]12C[C@@H]1[C@@H](n1cnc3c(NC)nc(C#Cc4ccc(Cl)s4)nc31)[C@H](O)[C@@H]2O [compound 32] | –285% | 1210 ± 100 |  | ^d (<30% inhibition of radioligand binding at 10 μM) | ^d (<30% inhibition of radioligand binding at 10 μM) | > 10000 |  |
| CNc1nc(C#Cc2ccc(Cl)s2)nc2c1ncn2[C@H]1[C@H](O)[C@H](O)[C@]2(C(=O)OCCC(C)C)C[C@H]12 [compound 33] | –196 ± 58% | 1090 ± 320 |  | ^d (<30% inhibition of radioligand binding at 10 μM) | ^d (<30% inhibition of radioligand binding at 10 μM) | > 10000 |  |
